Laboratory results published in the NIST ThermoML archive (doi:10.1021/je401120a).

Test: xn = mol fraction of the nth substance listed
Conditions: 101 kPa, Liquid; for electrical conductivity: Crison conductimeter (model GLP31); for speed of sound: Pulse-echo method; for mass density: Vibrating tube method

CCC[n+]1ccccc1.F[B-](F)(F)F [1-propylpyridinium tetrafluoroborate] + CO
Conditions	electrical conductivity [S/m]	mass density [kg/m3]	speed of sound [m/s]	viscosity [mPa·s]
293.15 K, x1 = 0.028	–	846.441	1164.9	–
293.15 K, x1 = 0.0313	2.58	–	–	–
293.15 K, x1 = 0.0365	2.84	–	–	–
293.15 K, x1 = 0.0422	3.07	–	–	–
293.15 K, x1 = 0.0505	–	–	–	1.267
293.15 K, x1 = 0.0577	–	893.625	1208.5	–
293.15 K, x1 = 0.0658	3.66	–	–	–
293.15 K, x1 = 0.0775	3.86	–	–	–
293.15 K, x1 = 0.0894	4.05	–	–	–
293.15 K, x1 = 0.0967	–	944.389	1257.2	–
293.15 K, x1 = 0.0993	–	–	–	2.52
293.15 K, x1 = 0.1294	4.37	–	–	–
293.15 K, x1 = 0.1409	4.4	–	–	–
293.15 K, x1 = 0.1459	–	995.788	1311.1	–
293.15 K, x1 = 0.1703	4.48	–	–	–
293.15 K, x1 = 0.191	–	–	–	5.73
293.15 K, x1 = 0.1952	–	1036.49	1362.9	–
293.15 K, x1 = 0.2002	4.41	–	–	–
293.15 K, x1 = 0.2456	4.22	–	–	–
293.15 K, x1 = 0.2819	3.93	–	–	–
293.15 K, x1 = 0.291	–	–	–	9.737
293.15 K, x1 = 0.3213	–	1110.62	1458	–
293.15 K, x1 = 0.3507	3.46	–	–	–
293.15 K, x1 = 0.3918	–	–	–	14.39
293.15 K, x1 = 0.3937	3.13	–	–	–
293.15 K, x1 = 0.4002	–	1143.05	1496.5	–
293.15 K, x1 = 0.4334	2.77	–	–	–
293.15 K, x1 = 0.464	2.55	–	–	–
293.15 K, x1 = 0.4929	–	–	–	20.26
293.15 K, x1 = 0.4965	–	1173.27	1541.5	–
293.15 K, x1 = 0.5398	1.98	–	–	–
293.15 K, x1 = 0.5988	–	1198.33	1575.7	–
293.15 K, x1 = 0.6117	–	–	–	29.28
293.15 K, x1 = 0.635	1.46	–	–	–
293.15 K, x1 = 0.6904	–	1216.19	1598.4	–
293.15 K, x1 = 0.7331	–	–	–	46.22
293.15 K, x1 = 0.7918	0.639	–	–	–
293.15 K, x1 = 0.7923	–	–	–	61.38
293.15 K, x1 = 0.8011	–	1233.62	1621.5	–
293.15 K, x1 = 0.8425	–	–	–	77.91
293.15 K, x1 = 0.8824	–	1244.23	1637.1	–
293.15 K, x1 = 0.894	0.422	–	–	–
293.15 K, x1 = 0.8956	–	–	–	99.92
293.15 K, x1 = 0.9384	0.355	–	–	–
293.15 K, x1 = 0.94	–	1250.69	1646.4	–
293.15 K, x1 = 0.9447	–	–	–	125.55
293.15 K, x1 = 1	0.302	1256.67	1653.9	160
303.15 K, x1 = 0.028	–	837.96	1134.5	–
303.15 K, x1 = 0.0313	2.99	–	–	–
303.15 K, x1 = 0.0365	3.28	–	–	–
303.15 K, x1 = 0.0422	3.59	–	–	–
303.15 K, x1 = 0.0505	–	–	–	0.9388
303.15 K, x1 = 0.0577	–	885.479	1179.8	–
303.15 K, x1 = 0.0658	4.29	–	–	–
303.15 K, x1 = 0.0775	4.56	–	–	–
303.15 K, x1 = 0.0894	4.84	–	–	–
303.15 K, x1 = 0.0967	–	936.347	1230.9	–
303.15 K, x1 = 0.0993	–	–	–	1.76
303.15 K, x1 = 0.1294	5.15	–	–	–
303.15 K, x1 = 0.1409	5.25	–	–	–
303.15 K, x1 = 0.1459	–	987.6	1286.2	–
303.15 K, x1 = 0.1703	5.38	–	–	–
303.15 K, x1 = 0.191	–	–	–	3.674
303.15 K, x1 = 0.1952	–	1028.35	1339.4	–
303.15 K, x1 = 0.2002	5.35	–	–	–
303.15 K, x1 = 0.2456	5.16	–	–	–
303.15 K, x1 = 0.2819	4.8	–	–	–
303.15 K, x1 = 0.291	–	–	–	6.277
303.15 K, x1 = 0.3213	–	1102.55	1433.2	–
303.15 K, x1 = 0.3507	4.31	–	–	–
303.15 K, x1 = 0.3918	–	–	–	8.954
303.15 K, x1 = 0.3937	3.94	–	–	–
303.15 K, x1 = 0.4002	–	1135.04	1477.2	–
303.15 K, x1 = 0.4334	3.52	–	–	–
303.15 K, x1 = 0.464	3.16	–	–	–
303.15 K, x1 = 0.4929	–	–	–	12.66
303.15 K, x1 = 0.4965	–	1165.53	1516.7	–
303.15 K, x1 = 0.5398	2.59	–	–	–
303.15 K, x1 = 0.5988	–	1190.7	1550.9	–
303.15 K, x1 = 0.6117	–	–	–	18.63
303.15 K, x1 = 0.635	2.01	–	–	–
303.15 K, x1 = 0.6904	–	1208.71	1574	–
303.15 K, x1 = 0.7331	–	–	–	29.44
303.15 K, x1 = 0.7918	1.04	–	–	–
303.15 K, x1 = 0.7923	–	–	–	38
303.15 K, x1 = 0.8011	–	1226.21	1597.3	–
303.15 K, x1 = 0.8425	–	–	–	47.82
303.15 K, x1 = 0.8824	–	1236.99	1612.7	–
303.15 K, x1 = 0.894	0.702	–	–	–
303.15 K, x1 = 0.8956	–	–	–	59.95
303.15 K, x1 = 0.9384	0.625	–	–	–
303.15 K, x1 = 0.94	–	1243.5	1622.4	–
303.15 K, x1 = 0.9447	–	–	–	73.49
303.15 K, x1 = 1	0.516	1249.54	1629.8	90.75
313.15 K, x1 = 0.028	–	829.037	1104.3	–
313.15 K, x1 = 0.0313	3.41	–	–	–
313.15 K, x1 = 0.0365	3.77	–	–	–
313.15 K, x1 = 0.0422	4.13	–	–	–
313.15 K, x1 = 0.0505	–	–	–	0.7578
313.15 K, x1 = 0.0577	–	876.892	1151.5	–
313.15 K, x1 = 0.0658	4.95	–	–	–
313.15 K, x1 = 0.0775	5.27	–	–	–
313.15 K, x1 = 0.0894	5.59	–	–	–
313.15 K, x1 = 0.0967	–	927.831	1204.8	–
313.15 K, x1 = 0.0993	–	–	–	1.273
313.15 K, x1 = 0.1294	6.03	–	–	–
313.15 K, x1 = 0.1409	6.12	–	–	–
313.15 K, x1 = 0.1459	–	979.474	1261.3	–
313.15 K, x1 = 0.1703	6.3	–	–	–
313.15 K, x1 = 0.191	–	–	–	2.523
313.15 K, x1 = 0.1952	–	1020.19	1314.3	–
313.15 K, x1 = 0.2002	6.26	–	–	–
313.15 K, x1 = 0.2456	6.05	–	–	–
313.15 K, x1 = 0.2819	5.68	–	–	–
313.15 K, x1 = 0.291	–	–	–	4.303
313.15 K, x1 = 0.3213	–	1094.6	1409.3	–
313.15 K, x1 = 0.3507	5.15	–	–	–
313.15 K, x1 = 0.3918	–	–	–	6.052
313.15 K, x1 = 0.3937	4.76	–	–	–
313.15 K, x1 = 0.4002	–	1127.34	1453.2	–
313.15 K, x1 = 0.4334	4.32	–	–	–
313.15 K, x1 = 0.464	3.91	–	–	–
313.15 K, x1 = 0.4929	–	–	–	8.501
313.15 K, x1 = 0.4965	–	1157.84	1492.7	–
313.15 K, x1 = 0.5398	3.26	–	–	–
313.15 K, x1 = 0.5988	–	1183.22	1527.3	–
313.15 K, x1 = 0.6117	–	–	–	12.48
313.15 K, x1 = 0.635	2.5	–	–	–
313.15 K, x1 = 0.6904	–	1201.32	1550.3	–
313.15 K, x1 = 0.7331	–	–	–	20
313.15 K, x1 = 0.7918	1.5	–	–	–
313.15 K, x1 = 0.7923	–	–	–	25.3
313.15 K, x1 = 0.8011	–	1218.9	1573.6	–
313.15 K, x1 = 0.8425	–	–	–	31.76
313.15 K, x1 = 0.8824	–	1229.83	1589.4	–
313.15 K, x1 = 0.894	1.05	–	–	–
313.15 K, x1 = 0.8956	–	–	–	38.87
313.15 K, x1 = 0.9384	0.94	–	–	–
313.15 K, x1 = 0.94	–	1236.33	1598.5	–
313.15 K, x1 = 0.9447	–	–	–	46.64
313.15 K, x1 = 1	0.799	1242.43	1606.3	56.02
323.15 K, x1 = 0.028	–	820.035	1073.8	–
323.15 K, x1 = 0.0313	3.87	–	–	–
323.15 K, x1 = 0.0365	4.25	–	–	–
323.15 K, x1 = 0.0422	4.68	–	–	–
323.15 K, x1 = 0.0505	–	–	–	0.673
323.15 K, x1 = 0.0577	–	867.868	1123.5	–
323.15 K, x1 = 0.0658	5.62	–	–	–
323.15 K, x1 = 0.0775	6	–	–	–
323.15 K, x1 = 0.0894	6.37	–	–	–
323.15 K, x1 = 0.0967	–	918.92	1178.7	–
323.15 K, x1 = 0.0993	–	–	–	1.009
323.15 K, x1 = 0.1294	6.98	–	–	–
323.15 K, x1 = 0.1409	7.05	–	–	–
323.15 K, x1 = 0.1459	–	970.736	1237	–
323.15 K, x1 = 0.1703	7.23	–	–	–
323.15 K, x1 = 0.191	–	–	–	1.915
323.15 K, x1 = 0.1952	–	1011.68	1291	–
323.15 K, x1 = 0.2002	7.2	–	–	–
323.15 K, x1 = 0.2456	7	–	–	–
323.15 K, x1 = 0.2819	6.64	–	–	–
323.15 K, x1 = 0.291	–	–	–	3.255
323.15 K, x1 = 0.3213	–	1086.6	1385.4	–
323.15 K, x1 = 0.3507	6.05	–	–	–
323.15 K, x1 = 0.3918	–	–	–	4.475
323.15 K, x1 = 0.3937	5.63	–	–	–
323.15 K, x1 = 0.4002	–	1119.59	1429.5	–
323.15 K, x1 = 0.4334	5.12	–	–	–
323.15 K, x1 = 0.464	4.78	–	–	–
323.15 K, x1 = 0.4929	–	–	–	6.13
323.15 K, x1 = 0.4965	–	1150.3	1467.3	–
323.15 K, x1 = 0.5398	3.97	–	–	–
323.15 K, x1 = 0.5988	–	1175.76	1503.9	–
323.15 K, x1 = 0.6117	–	–	–	8.91
323.15 K, x1 = 0.635	3.15	–	–	–
323.15 K, x1 = 0.6904	–	1193.84	1527.1	–
323.15 K, x1 = 0.7331	–	–	–	14.27
323.15 K, x1 = 0.7918	1.96	–	–	–
323.15 K, x1 = 0.7923	–	–	–	18.12
323.15 K, x1 = 0.8011	–	1211.54	1550.5	–
323.15 K, x1 = 0.8425	–	–	–	22.39
323.15 K, x1 = 0.8824	–	1222.55	1566.5	–
323.15 K, x1 = 0.894	1.48	–	–	–
323.15 K, x1 = 0.8956	–	–	–	26.94
323.15 K, x1 = 0.9384	1.34	–	–	–
323.15 K, x1 = 0.94	–	1229.15	1575	–
323.15 K, x1 = 0.9447	–	–	–	31.72
323.15 K, x1 = 1	1.15	1235.31	1583.3	36.99
